Values of other authors, collected in patent US9382233B2, “Forms of vilazodone and processes for the preparation thereof” (APOTEX INC., priority 2012, dated 2016).

Conditions: benzyl alcohol and its equivalents (benzoic acid, benzoate salts, benzaldehyde, benzyl acetate and benzyl benzoate); World Health Organization (JECFA, 2001)

OCc1ccccc1 [benzyl alcohol]
acceptable daily intake (ADI): 5 mg/kg
